{"source": "patent US8092790B2", "about": "“Methods of making formulations to affect insect behavior and/or bird behavior” (Bug Buster, Ltd., priority 2003, dated 2012)", "key": {"[1]": {"conditions": "25° C.; cited from earlier work"}, "[2]": {"tested_on": "bees (Panurgus banksianus, P. calacaratus)", "conditions": "in vivo; cited from earlier work"}, "mosquito": {"tested_on": "mosquito", "conditions": "in vivo; cited from earlier work"}, "bees (Apidae, Psithyrus)": {"tested_on": "bees (Apidae, Psithyrus)", "conditions": "in vivo; cited from earlier work"}, "[3]": {"tested_on": "Deraeocoris brevis (Uhler)", "conditions": "on sticky cards; cited from earlier work"}, "[4]": {"tested_on": "Orius tristicolor (White)", "conditions": "on sticky cards; cited from earlier work"}, "[5]": {"tested_on": "seed weevil (Smicronyx spp.)", "assay": "Comparison to 24% DEET on sunflower seed heads", "type": "in vivo", "conditions": "composition with 0.006% methyl anthranilate; DEET as 24% solution", "text": "An exemplary composition was compared to N,N-Diethyl-m-toluamide (DEET). The exemplary composition included an exemplary compound, methyl anthranilate (e.g., BIRDSHIELD™ at 0.006% methyl anthranilate), and an insecticide, esfenvalerate (e.g., ASANA™). A 24% DEET solution is often used in a standard evaluation process by entomologists for evaluating seed weevil (Smicronyx spp.) infestations."}, "[6]": {"tested_on": "sunflower seed weevils (Smicronyx spp.)", "assay": "Comparison to DEET product, drawing weevils out of sunflower heads", "type": "in vivo", "text": "DEET is often used by entomologists in standard procedures to draw sunflower seed weevils (Smicronyx spp.) out of the heads of sunflowers. In this trial, DEET was provided in the commercially available product DEEP WOODS OFF™ repellent (S.C. Johnson and Son's, Racine, Wis.), which has approximately 28.5% active ingredient; 1.5% other isomers and 70% inert ingredients. Forty-two flowers were randomly selected from interiors of three fields. One-half of the flowers were sprayed with the DEET containing repellent while the remaining flowers were sprayed with the exemplary compound at a concentration of approximately 0.00312% methyl anthranilate, which was combined with long chained fatty acids. The number of sunflower weevils was recorded."}, "[7]": {"tested_on": "mosquito (Aedes aegyptis)", "assay": "Mosquito repellency on human subject", "type": "in vivo", "conditions": "second trial; methyl anthranilate 0.00312%, DEET 0.24%; untreated head covered within one minute", "text": "In these trials, DEET was provided in the commercially available product DEEP WOODS OFF™ repellent (S.C. Johnson & Son, Inc., Racine, Wis.), which has approximately 28.5% active ingredient; 1.5% other isomers and 70% inert ingredients.\nIn a first trial, a human subject was exposed to a mosquito (Aedes aegyptis) rich environment without application of the exemplary compound or DEET. Within less than one minute the subject was covered with the insects. In a second trial, the subject sprayed one unclothed arm with the exemplary compound at a rate of 0.00312% and the other unclothed arm with DEET at a concentration of 0.24%. The subject's head remained untreated. Upon returning to the test area, the subject's head was covered with the insects within one minute. […] In a third trial the subject, after removing the DEET from his/her body, reapplied the exemplary compound to unclothed arms, head and neck before returning to the test area. The subject returned to and remained in the test area for more than one hour without any of the insects landing on his/her arms, hands and head while numerous insects were observed on the clothed portions of his/her anatomy."}, "sand fly": {"tested_on": "sand fly", "conditions": "in vivo; cited from earlier work"}, "house fly": {"tested_on": "house fly", "conditions": "in vivo; cited from earlier work"}, "Aenictus": {"tested_on": "Aenictus", "conditions": "in vivo; cited from earlier work"}, "[8]": {"tested_on": "green lacewing (Chrysopa nigricornis Bermeister)", "conditions": "in vivo; cited from earlier work"}, "bees (Apis mellifera L.)": {"tested_on": "bees (Apis mellifera L.)", "conditions": "in small groups; cited from earlier work"}, "birds": {"tested_on": "birds", "conditions": "in vivo; cited from earlier work"}}}
{"compound": "CC(C)C(C(=O)OC(C#N)c1cccc(Oc2ccccc2)c1)c1ccc(Cl)cc1", "note": "(single isomer, unassigned; (+)) [Esfenvalerate, (+)Alpha-cyano-3-phenoxybenzyl-(+)-alpha-(4-chlorophenyl)isovalerate]", "values": [{"measurement": "water solubility", "setting": "[1]", "value": "< 0.3", "unit": "µg/mL"}]}
{"compound": "CCCCCCCO", "note": "[1-heptanol]", "values": [{"measurement": "effect on behavior of bees", "setting": "[2]", "value": "affect behavior of bees"}]}
{"compound": "OCCc1ccccc1", "note": "[2-phenyl-ethanol]", "values": [{"measurement": "effect on behavior of bees", "setting": "[2]", "value": "affect behavior of bees"}]}
{"compound": "CCCCCCCCCC(C)OC(C)=O", "note": "(centres unmarked) [2-undecyl acetate]", "values": [{"measurement": "effect on mosquito", "setting": "mosquito", "value": "mosquito attractant"}]}
{"compound": "CC(C)=CCCC(C)CCO", "note": "(centres unmarked) [3,7-dimethyl-6-octen-1-ol]", "values": [{"measurement": "effect on behavior of bees", "setting": "bees (Apidae, Psithyrus)", "value": "act as a territory marker"}]}
{"compound": "CC/C=C/CCOC(C)=O", "note": "[(E)-3-hexenyl acetate]", "values": [{"measurement": "attraction of Deraeocoris brevis", "setting": "[3]", "value": "may be attracted"}, {"measurement": "attraction of Orius tristicolor", "setting": "[4]", "value": "may be attracted"}]}
{"compound": "CCN(CC)C(=O)c1cccc(C)c1", "note": "[DEET, N,N-Diethyl-m-toluamide, reference compound]", "values": [{"measurement": "insects observed in sprayed sunflower seed heads", "setting": "[5]", "value": "No insects were observed"}, {"measurement": "Number of insects, Mean", "setting": "[6]; Field No. 1", "value": 4.4}, {"measurement": "Number of insects, Total", "setting": "[6]; Field No. 1", "value": 44}, {"measurement": "Number of insects, Mean", "setting": "[6]; Field No. 2", "value": 12}, {"measurement": "Number of insects, Total", "setting": "[6]; Field No. 2", "value": 37}, {"measurement": "Number of insects, Mean", "setting": "[6]; Field No. 3", "value": 10.3}, {"measurement": "Number of insects, Total", "setting": "[6]; Field No. 3", "value": 86}, {"measurement": "mosquitoes on treated unclothed arm", "setting": "[7]", "value": "No mosquitoes were found"}, {"measurement": "water solubility", "setting": "[1]", "value": "approximately 912 mg/L"}]}
{"compound": "CC1=CCC(C(C)(C)O)CC1", "note": "(stereo not drawn) [alpha-terpineol]", "values": [{"measurement": "effect on sand fly", "setting": "sand fly", "value": "sand fly attractant"}]}
{"compound": "CC=CC(C)C(=O)OCC", "note": "(centres unmarked) [ethyl ester of 2-methyl-3-pentenoic acid]", "values": [{"measurement": "effect on house fly", "setting": "house fly", "value": "house fly attractant"}]}
{"compound": "CC(C)=CCC/C(C)=C/C=O", "note": "[geranial]", "values": [{"measurement": "effect on behavior of bees", "setting": "[2]", "value": "affect behavior of bees"}]}
{"compound": "CC(C)=CCC/C(C)=C/CO", "note": "[geraniol, 3,7-dimethyl-2,6-octadien-I-ol]", "values": [{"measurement": "effect on behavior of bees", "setting": "[2]", "value": "affect behavior of bees"}]}
{"compound": "CC(C)=CCC/C(C)=C/C(=O)O", "note": "[geranolic acid]", "values": [{"measurement": "effect on behavior of bees", "setting": "[2]", "value": "affect behavior of bees"}]}
{"compound": "COC(=O)c1cccnc1", "note": "[methyl nicotinate]", "values": [{"measurement": "semiochemical function for Aenictus", "setting": "Aenictus", "value": "trail semiochemicals"}]}
{"compound": "COC(=O)c1ccccc1O", "note": "[methyl salicylate]", "values": [{"measurement": "attraction of green lacewing", "setting": "[8]", "value": "attract"}]}
{"compound": "CC(C)=CCC/C(C)=C\\C=O", "note": "[neral]", "values": [{"measurement": "effect on behavior of bees", "setting": "[2]", "value": "affect behavior of bees"}]}
{"compound": "CC(C)=CCC/C(C)=C\\CO", "note": "[nerol]", "values": [{"measurement": "effect on behavior of bees", "setting": "[2]", "value": "affect behavior of bees"}]}
{"compound": "CC(C)=CCC/C(C)=C\\C(=O)O", "note": "[nerolicacid]", "values": [{"measurement": "effect on behavior of bees", "setting": "[2]", "value": "affect behavior of bees"}]}
{"compound": "CC(=O)c1ccccc1N", "note": "[o-aminoacetophone, o-aminoacetophenone]", "values": [{"measurement": "effect on bees", "setting": "bees (Apis mellifera L.)", "value": "repels bees"}, {"measurement": "repellency to birds", "setting": "birds", "value": "exhibit repellency to birds"}]}
{"compound": "bisabolene", "values": [{"measurement": "effect on house fly", "setting": "house fly", "value": "house fly repellent"}]}
